Measurements published in patent publication US5723496A, “Method for prevention and treatment of harmful effects of intracellular acidosis” (priority 1995, dated 1998).
Several values for one entry are separate records, joined by “and”; a condition that tells them apart may be missing. Equal values may be shown once. Entries after “also recorded” stand apart in the source; their conditions may differ. Where a name gives a salt, the structure may show the parent alone. Read-outs that look alike come from different tables or passages of the source.

Columns and labels:
[1] = tested on: post-ischemia hyperactivity; test: motor activity (distance traveled) before and after ischemia; type: in vivo, gerbil
Method: Ischemia was induced as described above. Motor activity was analyzed using a PC driven automatic behavior analyzer as follows. Animals were placed individually in automated motor activity chambers (Omnitech Digiscan, Columbus, Ohio). A horizontally aligned array of […] infrared beams on each side of the chamber (39×39×39 cm high), located 2.5 cm above the floor and 2.5 cm apart, detected animals movements. […] Animals were studied prior to and 1, 2, 3, 7 day after induction of ischemia. Motor activity was monitored for 6 hours between 11:00 pm and 5:00 am.

[2] = tested on: adult mice exposed to anoxia; test: survival of adult mice exposed to anoxia; type: in vivo, Adult Swiss mice; design: mortality, 2.5 minutes of anoxia / protection against 2.5 minutes anoxia: concentration or dose not given beside the values; settings: for protection against anoxia / survival (in words): sulfate
Method: Adult Swiss mice (BK-1 males, 20 g) purchased from Bantin & Kingman, Fremont, Calif. were used. Each batch consisted of 10 mice. Within each batch five mice were selected randomly as experimental animals and the remaining five as controls. Experimental mice received daily intraperitoneal injections of 0.25 ml of GES (50 mg/ml) for 14 days.
At day 14, all mice within the same batch (5 experimental and 5 each of the […]) were placed in a specially designed chamber (26.5×24.5×21.0 cm). Anoxia/hypoxia was produced by infusion of pure nitrogen gas ([…]) into the chamber for 2.5 or 2.75 minutes. Anoxia/hypoxia was reversed immediately after these intervals by removing the chamber and placing the mice in a room air environment.
The results are shown in FIG. 1 and discussed in detail above.

[3] = tested on: gerbil brain; test: intracellular pH of gerbil brain (31P NMR); type: in vivo; settings: mean and standard deviation; p<0.05 (t-test) vs saline 7.17; sulfate
Method: Intracellular pH measurement of gerbil brain was performed non-invasively using ^31 P nuclear magnetic resonance (NMR) in vivo spectroscopy. AGE Omega CSI-7T (useful bore 120 mm, horizontal, 7T) was used.
Gerbils were divided into […] of 7 animals each. Control group received saline. Saline ischemia group received saline. GES group received GES. Gerbils were anesthetized with pentobarbital, 50 mg/kg. Gerbils were held in a padded holder which was placed in the probe chamber containing a one turn round surface coil (5 mm diameter) tunable to the resonance frequency of proton and ^31 P. To avoid signal contamination, the scalp and temporal muscle were retracted. The body temperature was kept at 37° C. using a non-magnetic heating pad. Field homogeneity was maximized by skimming on tissue water proton signals. ^31 P spectra were obtained using a one pulse sequence at 121.67 MHz with a spectral width of 10K and stored into 4K memory blocks (recycle time 2.7 sec). The broad resonance with short T2 on ^31 P spectra was removed by the convolution difference technique. Line broadening of 30 Hz was applied as noise filter.

[4] = design: species or system Adult Swiss mice; settings: mouse, in vivo
Method: (§1) Adult Swiss mice (BK-1 male 20 g) purchased from Bantin & Kingman, Fremont, Calif., were used. Each batch consisted of 15 mice. Within each batch, five mice were selected randomly to be in the GES, taurine, or control group. A taurine group was included to serve as additional control.
Arterial blood gas sample was collected by puncture of the lower portion of the descending aorta under pentobarbital anesthesia. Analysis was performed on a Corning 168 Blood Gas Analyzer.

[5] = design: species or system gerbil; settings: in vivo
Method: Adult male gerbils (ca. 70 g) were divided into three groups of 5 gerbils each. Control group received saline and experimental group received GES. Taurine group served as an additional control. […] The saline group received 0.25 ml of saline injections.
After two weeks, animals were sacrificed by exsanguination under pentobarbital anesthesia. Brains were removed and fixed in liquid nitrogen. The frozen brains were pulverized in a liquid nitrogen cooled mortar and pestle, and mixed with 4 volumes of 0.5N powdered frozen perchloric acid. The powder mixture was centrifuged in liquid nitrogen cooled centrifuge tubes at 16,000 rpm at -4° C. for 30 minutes. The supernatant was removed and titrated to a pH of 9.0-9.5 by the addition of potassium bicarbonate. The solution was stored in an ice bath for 15 minutes and the potassium perchlorate precipitate was removed by centrifugation at 16,000 rpm at -4° C.
Aliquots (0.5 ml) of the extracts obtained above were placed on a dual bed ion exchange column containing 6×0.5 cm Dowex AG1 anion exchange resin (chloride form) layered over 6×0.5 cm Dowex AG50 cation exchange resin (hydrogen form). Water (3 ml) then added to the column. The eluent, guanidinoethyl sulfonate, was free from other naturally occurring guanidino compounds, such as arginine. […] After 18 min., absorbance was read at 545 nm using a Gilford Spectrophotometer to determine brain GES level.

[6] = tested on: taurine transport into the brain; settings: sulfate; cited from earlier work
[7] = charge state in brain cytosol from pKa; settings: sulfate
Excerpt: (Soc. Neurosci., 21 Annual Meeting, Abstract, 1078, Oct. 5, 1992). Entry of GES across the blood-brain barrier (BBB) is likely to be in the uncharged form. Following free diffusion into the cytosol, the ratio between uncharged and charged forms will equilibrate according to cytosolic pH and the pKa value of GES.
Following free diffusion into cytosol, the ratio between charged (RH3^+) and uncharged forms will equilibrate according to cytosolic pH and their respective pKa values.

[8] = observation of behavior and respiratory pattern; type: in vivo, Adult Swiss mice; settings: two weeks i.p.
Excerpt: as §1

[9] = in vivo, sulfate, cited from earlier work

N=C(N)NCCS(=O)(=O)O [GES, guanidinoethane sulfate]
travelling distance before ischemia ([1]; GES-treated gerbils): approximately 150 m/hours | travelling distance of ischemia control vs GES ischemia group ([1]; first day after ischemia): more than 2.5 times | post-ischemia hyperactivity (in words) ([1]; in vivo, sulfate): did not experienced such hyperactivity periods; also recorded: significantly suppressed; also recorded: able to suppress post-ischemic hyperactivity to close to normal levels | mortality, 2.5 minutes of anoxia ([2]; 14 days i.p. pretreatment): zero | mortality, 2.75 minutes of anoxia ([2]; 14 days i.p. pretreatment): 20% | protection against 2.5 minutes anoxia ([2]; FIG. 1): 100% | protection against anoxia / survival (in words) ([2]; listed as sodium guanidinoethane sulfate): effectively prevent lactic acidosis caused by complete oxygen deficiency | protection against anoxia / survival (in words) [2]: more effective than pretreatment with taurine or saline; also recorded: enhance the survival rate of mice exposed to anoxia; also recorded: significantly enhances the survival rate of adult mice exposed to anoxia | intracellular pH of gerbil brain [3]: 7.26 and 7.25±0.07 and 7.25 | arterial blood gas parameters including pH (in words) [4]: remained essentially unchanged | arterial pCO2 [4]: 41.0 ± 5.49 mmHg | arterial pH [4]: 7.29 ± 0.03 | arterial pO2 [4]: 98.0 ± 5.8 mmHg | brain GES level relative to saline group [5]: about 7 times | effect on taurine transport into the brain (in words) [6]: competitive inhibitor of taurine transport into the brain; also recorded: effectively competes with and inhibits taurine transport into the brain | charge state in brain cytosol (in words) [7]: virtually all GES in brain cytosol is in the charged form | observable adverse effects in behavior or respiratory pattern [8]: did not show any observable adverse effects | blood-brain barrier crossing (in words) ([9]; listed as Guanidinoethanesulfonic acid): ability to cross the blood-brain barrier | blood-brain barrier crossing (in words) [9]: crosses the blood brain barrier in the uncharged form
